Legend:
3-NP-lesioned rat = details: systemic administration; cited from earlier work
[1] = test system: TH-immunoreactive neurons in intrastriatal nigral grafts; assay: Graft survival: TH-immunocytochemistry and graft volume 6 weeks after transplantation; format: in vivo, rat
striatal tissue cultures = details: cited from earlier work
[2] = test system: TH-positive neurons and total cells in ventral mesencephalic (VM) tissue cultures; assay: Dopamine neuron survival in serum-free ventral mesencephalic tissue cultures (TH-positive and total cell counts); format: cell-based, rat
Description: In order to examine the effects of TUDCA on apoptosis and the survival of dopamine neurons in VM tissue cultures under serum-free conditions and to determine an appropriate dosage of TUDCA, primary neuronal cultures were prepared from the VM tissue of SD rat embryos and incubated with or without the addition of TUDCA (Calbiochem, La Jolla, Calif., free base, dissolved in 0.15M (where “M” is molar concentration) NaHCO3 buffer). […] Therefore, TUDCA was added to a final concentration of 50 μM to the culture medium when the culture medium was switched to serum-free conditions after two days in vitro. Neural survival and apoptosis were determined by counting TH-positive cells and TUNEL-positive cells in the cultures two or seven days in vitro. A total of three separate series of cell culture experiments were performed.
For each experimental series, pooled VM tissue from 24-32 embryos was incubated in 0.1% trypsin (Sigma, St. Louis, Mo.)/0.05% DNase (Sigma, St. Louis Mo.) at 37 degrees Celsius (° C.) for 20 minutes (min), and mechanically dissociated using a 1 milliliter (ml) Gilson pipette. Following dissociation, the cells were centrifuged at 600 rotation per minute (rpm) for 5 min and the pellet was resuspended in Dulbecco's Modified Eagle's Medium (DMEM) (Gibco, Carlsbad, Calif.). The cell number and viabilities of dissociated cells were assessed with a hemocytometer using trypan blue dye exclusion. The number of 100,000 cells/cm^2 (178,000 cells per well) were plated on to four-well chamber slides (Nunc, Rochester, N.Y.) precoated with […] poly-d-lysine (Sigma, St. Louis Mo.). The viabilities of dissociated cells were over 95%. Cell cultures were incubated for 2 days in DMEM supplemented with 10% fetal calf serum at 37° C. in a 95% air/5% CO^2 humidified atmosphere. After 2 days in vitro, the culture medium was switched to serum-free N2 medium, consisting of DMEM/Ham's F 12(1:1) mixture (Gibco, Carlsbad, Calif.).
At this time point, some cultures were supplemented with TUDCA. […]

[3] = test system: TUNEL-positive cells in VM tissue cultures; assay: TUNEL assay of apoptosis in VM tissue cultures; format: cell-based, rat; details: 50 μM TUDCA, p<0.01
Description: In order to examine the effects of TUDCA on apoptosis and the survival of dopamine neurons in VM tissue cultures under serum-free conditions and to determine an appropriate dosage of TUDCA, primary neuronal cultures were prepared from the VM tissue of SD rat embryos and incubated with or without the addition of TUDCA (Calbiochem, La Jolla, Calif., free base, dissolved in 0.15M (where “M” is molar concentration) NaHCO3 buffer). […] Therefore, TUDCA was added to a final concentration of 50 μM to the culture medium when the culture medium was switched to serum-free conditions after two days in vitro. Neural survival and apoptosis were determined by counting TH-positive cells and TUNEL-positive cells in the cultures two or seven days in vitro. […]
For each experimental series, pooled VM tissue from 24-32 embryos was incubated in 0.1% trypsin (Sigma, St. Louis, Mo.)/0.05% DNase (Sigma, St. Louis Mo.) at 37 degrees Celsius (° C.) for 20 minutes (min), and mechanically dissociated using a 1 milliliter (ml) Gilson pipette. […] The cell number and viabilities of dissociated cells were assessed with a hemocytometer using trypan blue dye exclusion. […]
For the cell culture experiments, the number of TUNEL-positive cells was assessed at ×400 magnification with the aid of a 400-μm square, reticule grid. […] Average number of TUNEL-positive cells was calculated and represented a value for single animals.

## C[C@H](CCC(=O)NCCS(=O)(=O)O)[C@H]1CC[C@H]2[C@@H]3[C@@H](O)C[C@@H]4C[C@H](O)CC[C@]4(C)[C@H]3CC[C@]12C [TUDCA, tauroursodeoxycholic acid]
3-NP-lesioned rat
  neurological deficits: ameliorate neurological deficits
  striatal degeneration: reduce striatal degeneration
[1]
  areas of the host striatum reinnervated by the grafts compared to control group: larger
[1]; p<0.05
  graft volume compared to control group: significantly larger
Striatal tissue cultures
  3-nitropropionic acid (3-NP)-mediated neuronal cell death: significantly reduces
[2]; 50 μM TUDCA added at switch to serum-free medium after 2 days in vitro, counted at 7 DIV, p>0.05
  number of TH-positive cells, TUDCA-treated cultures compared with 2DIV cultures: No difference
[2]; 7DIV TUDCA-treated cultures, serum-free, 7 DIV control had only 30% of 2 DIV TH-positive neurons
  cell loss of TH-positive neurons and total cells: not observed
[2]; VM tissue cultures, serum-free
  dose dependence of neural protective effect: dose-dependent manner
[3]
  number of TUNEL-positive cells, 7 DIV control versus 7 DIV TUDCA-treated cultures: significantly higher in 7 DIV control cultures
